# Target: HPK1 (Homo sapiens (Human), UniProt Q92918)
# Experiment: HPK1 Kinase Binding Assay
# Conditions: LanthaScreen tracer 222 binding, active HPK1, one hour incubation at 25° C.
# Summary of the method: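 This is a LanthaScreen tracer-binding format: a tracer 222/Eu-anti-GST antibody mix (18 nM and 4 nM solution) is added to active HPK1 (4 nM solution) with 3-fold, 11-point compound dilutions. Incubation is 1 h at 25 °C in HEPES pH 7.5 buffer before reading, and Ki is determined.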
# Chain of HPK1 (Q92918 1-346): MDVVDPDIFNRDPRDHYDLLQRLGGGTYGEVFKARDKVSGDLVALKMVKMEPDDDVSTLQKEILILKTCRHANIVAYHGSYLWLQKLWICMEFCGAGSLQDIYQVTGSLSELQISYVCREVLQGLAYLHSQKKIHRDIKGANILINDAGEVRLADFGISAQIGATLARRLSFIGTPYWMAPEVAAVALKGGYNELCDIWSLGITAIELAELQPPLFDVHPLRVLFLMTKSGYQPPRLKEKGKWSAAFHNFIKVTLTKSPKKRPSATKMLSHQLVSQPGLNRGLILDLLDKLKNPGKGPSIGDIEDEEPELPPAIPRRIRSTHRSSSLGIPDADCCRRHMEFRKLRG
row,SMILES,Ki [µM]
1,"CCN1CCN(c2ccc(-c3n[nH]c4cnc(-c5c(F)cccc5OC)nc34)cc2)CC1 [Example 37, 3-(4-(4-Ethylpiperazin-1-yl)phenyl)-5-(2-fluoro-6-methoxyphenyl)-1H-pyrazolo[4,3-d]pyrimidine]",≤ 0.1
2,"NC1CCCc2c1cc(F)c(-c1ncc3[nH]nc(-c4ccc(N5CCOCC5)nc4)c3n1)c2F (stereo not shown) [Example 117, 5,7-Difluoro-6-(3-(6-morpholinopyridin-3-yl)-1H-pyrazolo[4,3-d]pyrimidin-5-yl)-1,2,3,4-tetrahydronaphthalen-1-amine]",≤ 0.1
3,"COc1cccc(F)c1-c1ncc2[nH]nc(-c3ccc(CN4CCOCC4)cc3)c2n1 [Example 24, 4-(4-(5-(2-Fluoro-6-methoxyphenyl)-1H-pyrazolo[4,3-d]pyrimidin-3-yl)benzyl)morpholine]",≤ 0.1
4,"CNC1CCc2c1cc(F)c(-c1ncc3[nH]nc(-c4cnc(N5CCN(C)CC5)nc4)c3n1)c2F (stereo not shown) [Example 114, 4,6-Difluoro-N-methyl-5-(3-(2-(4-methylpiperazin-1-yl)pyrimidin-5-yl)-1H-pyrazolo[4,3-d]pyrimidin-5-yl)-2,3-dihydro-1H-inden-1-amine]",≤ 0.1
5,"COc1cccc(F)c1-c1ncc2[nH]nc(-c3ccc(C(F)(F)F)cc3)c2n1 [Example 18, 5-(2-Fluoro-6-methoxyphenyl)-3-(4-(trifluoromethyl)phenyl)-1H-pyrazolo[4,3-d]pyrimidine]",0.1 to 0.5
6,"COc1cccc(F)c1-c1ncc2[nH]nc(/C=C/c3ccc(N4CCN(C)CC4)cc3)c2n1 [Example 55, (E)-5-(2-Fluoro-6-methoxyphenyl)-3-(4-(4-methylpiperazin-1-yl)styryl)-1H-pyrazolo[4,3-d]pyrimidine]",≤ 0.1
7,"COc1c(-c2ncc3[nH]nc(-c4ccc(N5CCOCC5)nc4)c3n2)c(F)cc2c1C(N)CC2 (stereo not shown) [Example 119, 5-Fluoro-7-methoxy-6-(3-(6-morpholinopyridin-3-yl)-1H-pyrazolo[4,3-d]pyrimidin-5-yl)-2,3-dihydro-1H-inden-1-amine]",≤ 0.1
8,"CNCc1cc(F)c(-c2ncc3[nH]nc(-c4ccc(N5CCN(S(C)(=O)=O)CC5)nc4)c3n2)c(F)c1 [Example 74, 1-(3,5-Difluoro-4-(3-(6-(4-(methylsulfonyl)piperazin-1-yl)pyridin-3-yl)-1H-pyrazolo[4,3-d]pyrimidin-5-yl)phenyl)-N-methylmethanamine]",≤ 0.1
9,"COc1cccc(F)c1-c1ncc2[nH]nc(-c3ccc(N4CCOCC4)nc3)c2n1 [Example 53, 4-(5-(5-(2-Fluoro-6-methoxyphenyl)-1H-pyrazolo[4,3-d]pyrimidin-3-yl)pyridin-2-yl)morpholine]",≤ 0.1
10,"CNCc1cc(F)c(-c2ncc3[nH]nc(-c4ccc(C(=O)NC)nc4)c3n2)c(F)c1 [Example 61, 5-(5-(2,6-Difluoro-4-((methylamino)methyl)phenyl)-1H-pyrazolo[4,3-d]pyrimidin-3-yl)-N-methylpicolinamide]",≤ 0.1
11,"CNCc1cc(F)c(-c2ncc3[nH]nc(-c4cccc(C#N)c4)c3n2)c(F)c1 [Example 64, 3-(5-(2,6-Difluoro-4-((methylamino)methyl)phenyl)-1H-pyrazolo[4,3-d]pyrimidin-3-yl)benzonitrile]",≤ 0.1
12,"CNCc1cc(C)c(-c2ncc3[nH]nc(-c4cnn(C)c4)c3n2)c(F)c1 [Example 78, 1-(3-Fluoro-5-methyl-4-(3-(1-methyl-1H-pyrazol-4-yl)-1H-pyrazolo[4,3-d]pyrimidin-5-yl)phenyl)-N-methylmethanamine]",≤ 0.1
13,"COc1ccc(F)c(F)c1-c1ncc2[nH]nc(-c3ccc(N4CCN(C)CC4)cc3)c2n1 [Example 45, 5-(2,3-Difluoro-6-methoxyphenyl)-3-(4-(4-methylpiperazin-1-yl)phenyl)-1H-pyrazolo[4,3-d]pyrimidine]",≤ 0.1
14,"CN1CCN(c2ccc(-c3n[nH]c4cnc(-c5c(F)ccc6c5CCCC6N)nc34)cc2)CC1 (stereo not shown) [Example 121, 6-Fluoro-5-(3-(4-(4-methylpiperazin-1-yl)phenyl)-1H-pyrazolo[4,3-d]pyrimidin-5-yl)-1,2,3,4-tetrahydronaphthalen-1-amine]",≤ 0.1
15,"OCCNc1ncc(-c2n[nH]c3cnc(-c4c(F)cc5c(c4F)CNCC5)nc23)cn1 [Example 91, 2-(5-(5-(6,8-Difluoro-1,2,3,4-tetrahydroisoquinolin-7-yl)-1H-pyrazolo[4,3-d]pyrimidin-3-yl)pyrimidin-2-ylamino)ethanol]",≤ 0.1
16,"CNCc1cc(F)c(-c2ncc3[nH]nc(-c4ccc(C(=O)NC)c(F)c4)c3n2)c(F)c1 [Example 62, 4-(5-(2,6-Difluoro-4-((methylamino)methyl)phenyl)-1H-pyrazolo[4,3-d]pyrimidin-3-yl)-2-fluoro-N-methylbenzamide]",≤ 0.1
17,"CNCc1cc(F)c(-c2ncc3[nH]nc(-c4ccc(N5CCN(CCOC)CC5)cc4)c3n2)c(F)c1 [Example 123, 1-(3,5-Difluoro-4-(3-(4-(4-(2-methoxyethyl)piperazin-1-yl)phenyl)-1H-pyrazolo[4,3-d]pyrimidin-5-yl)phenyl)-N-methylmethanamine]",≤ 0.1
18,"Cc1cccc(F)c1-c1ncc2[nH]nc(-c3ccc(N4CCC(O)C4)cc3)c2n1 (stereo not shown) [Example 60, 1-(4-(5-(2-Fluoro-6-methylphenyl)-1H-pyrazolo[4,3-d]pyrimidin-3-yl)phenyl)pyrrolidin-3-ol]",≤ 0.1
19,"CNCc1cc(F)c(-c2ncc3[nH]nc(-c4cnn(C)c4)c3n2)c(F)c1 [Example 84, 1-(3,5-Difluoro-4-(3-(1-methyl-1H-pyrazol-4-yl)-1H-pyrazolo[4,3-d]pyrimidin-5-yl)phenyl)-N-methylmethanamine]",≤ 0.1
20,"Cc1c2c(cc(F)c1-c1ncc3[nH]nc(-c4ccc(N5CCN(C)CC5)nc4)c3n1)CCNC2 [Example 110, 6-Fluoro-8-methyl-7-(3-(6-(4-methylpiperazin-1-yl)pyridin-3-yl)-1H-pyrazolo[4,3-d]pyrimidin-5-yl)-1,2,3,4-tetrahydroisoquinoline]",≤ 0.1
21,"CC(=O)N1CCN(c2ccc(-c3n[nH]c4cnc(-c5c(F)cc6c(c5C)CNCC6)nc34)cc2)CC1 [Example 108, 1-(4-(4-(5-(6-Fluoro-8-methyl-1,2,3,4-tetrahydroisoquinolin-7-yl)-1H-pyrazolo[4,3-d]pyrimidin-3-yl)phenyl)piperazin-1-yl)ethanone]",≤ 0.1
22,"COc1cccc(F)c1-c1ncc2[nH]nc(-c3ccc(C4CCOCC4)cc3)c2n1 [Example 43, 5-(2-Fluoro-6-methoxyphenyl)-3-(4-(tetrahydro-2H-pyran-4-yl)phenyl)-1H-pyrazolo[4,3-d]pyrimidine]",≤ 0.1

# Reference: US11014929B2, “Pyrazolopyrimidine compounds and uses thereof” (Incyte Corporation, priority 2016, dated 2021)
